From US20230183218A1, “CONDENSED SUBSTITUTED HYDROPYRROLES AS ANTAGONISTS OF THE MUSCARINIC ACETYLCHOLINE RECEPTOR M4” (Vanderbilt University, priority 2020, published 2023) come the findings set out here.

The target of assay [1] is T1, Human M4 (Homo sapiens, UniProt P08173).
T1 construct: expressed in transfected cells; host or cells: CHO-K1 (ATCC), stably co-expressing chimeric G protein Gqi5
T1 sequence (P08173 1-479): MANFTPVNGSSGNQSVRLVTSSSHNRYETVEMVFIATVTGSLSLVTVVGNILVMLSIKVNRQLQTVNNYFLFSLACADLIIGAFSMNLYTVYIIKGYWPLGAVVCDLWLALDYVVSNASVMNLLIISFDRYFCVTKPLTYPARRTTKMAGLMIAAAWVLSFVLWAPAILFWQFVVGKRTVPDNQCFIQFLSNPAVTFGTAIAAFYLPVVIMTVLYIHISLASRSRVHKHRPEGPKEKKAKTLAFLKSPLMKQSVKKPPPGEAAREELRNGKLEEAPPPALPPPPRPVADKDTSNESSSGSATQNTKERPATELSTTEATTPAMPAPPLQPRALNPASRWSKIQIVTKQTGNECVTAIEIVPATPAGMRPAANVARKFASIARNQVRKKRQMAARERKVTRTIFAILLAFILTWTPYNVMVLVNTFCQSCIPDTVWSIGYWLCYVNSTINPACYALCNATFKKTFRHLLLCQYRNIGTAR
Nature of the assay: mAChR M4 cell-based functional assay (calcium flux, antagonist mode vs EC80 acetylcholine), human M4/Gqi5/CHO-K1 cells. To be noted: for remaining activity at 30 µM: CHO-K1, read-out: Human M4 Emin (%); for IC50: decrease of response elicited by EC80 acetylcholine, human M4/Gqi5 CHO-K1 cells. The procedure:
(§1) Human or rat M4 cDNA, along with the chimeric G protein Gqi5, were transfected into Chinese hamster ovary (CHO-K1) cells purchased from the American Type Culture Collection using Lipofectamine2000. M4/Gqi5/CHO cells were grown in Ham's F-12 medium containing 10% heat-inactivated fetal bovine serum (FBS), 20 mM HEPES, 500 μg/mL G418 sulfate, and 200 μg/mL Hygromycin B.
(§2) For high throughput measurement of agonist-evoked increases in intracellular calcium, CHO-K1 cells stably expressing muscarinic receptors were plated in growth medium lacking G418 and hygromycin at 15,000 cells/20 μL/well in Greiner 384-well black-walled, tissue culture (TC)-treated, clear-bottom plates (VWR). Cells were incubated overnight at 37° C. and 5% CO2. The next day, cells were washed using an ELX 405 (BioTek) with assay buffer; the final volume was then aspirated to 20 μL. Next, 20 μL of a 2.3 μM stock of Fluo-4/acetoxymethyl ester (Invitrogen, Carlsbad, Calif.), prepared as a 2.3 mM stock in DMSO and mixed in a 1:1 ratio with 10% (w/v) Pluronic F-127 and diluted in assay buffer, was added to the wells and the cell plates were incubated for 50 min at 37° C. and 5% CO2. Dye was removed by washing with the ELX 405 and the final volume was aspirated to 20 μL. Compound master plates were formatted in a 10 point concentration-response curve (CRC) format (1:3 dilutions) in 100% DMSO with a starting concentration of 10 or 1 mM using a BRAVO liquid handler (Agilent). Test compound CRCs were then transferred to daughter plates (240 nL) using the Echo acoustic plate reformatter (Labcyte, Sunnyvale, Calif.) and then diluted into assay buffer (40 μL) to a 2× stock using a Thermo Fisher Combi (Thermo Fisher Scientific, Waltham, Mass.).
(§3) Calcium flux was measured using the Functional Drug Screening System (FDSS) 6000 or 7000 (Hamamatsu Corporation, Tokyo, Japan) as an increase in the fluorescent static ratio. Compounds were applied to cells (20 μL, 2×) using the automated system of the FDSS at 2 seconds into the protocol and the data were collected at 1 Hz. At 143 s, 10 μL of an EC20 concentration of the muscarinic receptor agonist acetylcholine was added (5×), followed by the addition of 12 μL of an EC80 concentration of acetylcholine at the 268 s time point (5×). Agonist activity was analyzed as a concentration-dependent increase in calcium mobilization upon compound addition. Positive allosteric modulator activity was analyzed as a concentration-dependent increase in the EC20 acetylcholine response. Antagonist activity was analyzed as a concentration-dependent decrease in the EC80 acetylcholine response; for the purposes of the tables herein, an IC50 (inhibitory concentration 50) was calculated as a concentration-dependent decrease of the response elicited by an EC80 concentration of acetylcholine. Concentration-response curves were generated using a four-parameter logistical equation in XLFit curve fitting software (IDBS, Bridgewater, N.J.) for Excel (Microsoft, Redmond, Wash.) or Prism (GraphPad Software, Inc., San Diego, Calif.) or the Dotmatics software platform (Dotmatics, Bishop's Stortford, UK).
(§4) Compounds were synthesized as described above. Activity (IC50 and Emin) was determined in the mAChR M4 cell-based functional assay as described above and the data are shown in Table 2.
(Calcium assays in cells follow changes in intracellular calcium, usually with a dye or a luminescent sensor.)

Assay [2] concerns the target T2, Rat M4 (Rattus norvegicus, UniProt P08485).
T2 construct: expressed in transfected cells; host or cells: CHO-K1 (ATCC), stably co-expressing chimeric G protein Gqi5
T2 sequence (P08485 1-478): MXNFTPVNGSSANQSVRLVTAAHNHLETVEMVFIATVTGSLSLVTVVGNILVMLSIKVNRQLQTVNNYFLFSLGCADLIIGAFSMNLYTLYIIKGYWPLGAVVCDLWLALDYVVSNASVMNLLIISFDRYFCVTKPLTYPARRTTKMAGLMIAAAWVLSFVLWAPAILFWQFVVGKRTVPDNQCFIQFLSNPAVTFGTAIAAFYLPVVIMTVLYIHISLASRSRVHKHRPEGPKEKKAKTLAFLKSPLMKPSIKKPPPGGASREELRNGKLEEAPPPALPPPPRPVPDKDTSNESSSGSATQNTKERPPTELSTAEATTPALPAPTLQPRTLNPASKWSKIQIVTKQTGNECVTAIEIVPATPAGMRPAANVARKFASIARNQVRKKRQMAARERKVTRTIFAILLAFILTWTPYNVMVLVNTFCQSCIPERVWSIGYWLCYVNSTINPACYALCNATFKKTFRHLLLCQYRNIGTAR
As to the kind of experiment: mAChR M4 cell-based functional assay (calcium flux, antagonist mode vs EC80 acetylcholine), rat M4/Gqi5/CHO-K1 cells. Conditions: for remaining activity at 30 µM: CHO-K1, read-out: Rat M4 Emin (%); for IC50: decrease of response elicited by EC80 acetylcholine, rat M4/Gqi5 CHO-K1 cells. As for the experimental part: as §1, §2, §3, §4

Where [3] appears, read: % ACh maximum at 30 μM, human M4.

One may read the IC50 as the concentration at which inhibition is half-maximal. On to `Fc1ccc(Cl)c(-c2ccc(N[C@H]3C[C@@H]4CN(C5COC5)C[C@@H]4C3)nn2)c1` [compound 14, (3aR,5s,6aS)-N-(6-(2-chloro-5-fluorophenyl)pyridazin-3-yl)-2-(oxetan-3-yl)octahydrocyclopenta[c]pyrrol-5-amine], for which the remaining activity at 30 µM in assay [1] (setting [3]) came out at 21%; in assay [2] (% ACh maximum at 30 μM, rat M4), 51%. Besides, the IC50 in assay [1] is 5030 nM; in assay [2], > 10000 nM.

Regarding `CC1(C)CC(N2C[C@H]3C[C@H](Nc4ccc(S(=O)(=O)C5CCCCC5)nn4)C[C@H]3C2)CCO1` (stereo partly drawn) [compound 66, (3aR,5s,6aS)-N-(6-(cyclohexylsulfonyl)pyridazin-3-yl)-2-(2,2-dimethyltetrahydro-2H-pyran-4-yl)octahydrocyclopenta[c]pyrrol-5-amine], the “Human M4 Emin (%)” value in assay [1] (setting [3]) came to 5%. For the same molecule, in assay [2] (% ACh maximum at 30 μM, rat M4), the “Rat M4 Emin (%)” value was 7%. In addition, the IC50 in assay [2] was 460 nM.

As for `O=S(=O)(c1ccccc1)c1ccc(N[C@H]2C[C@@H]3CN(Cc4ncccc4C(F)(F)F)C[C@@H]3C2)nn1` [compound 41, (3aR,5s,6aS)-N-(6-(phenylsulfonyl)pyridazin-3-yl)-2-((3-(trifluoromethyl)pyridin-2-yl)methyl)octahydrocyclopenta[c]pyrrol-5-amine], the remaining activity at 30 µM in assay [1] (setting [3]) turned out to be 6%; in assay [2] (% ACh maximum at 30 μM, rat M4), 20%. Further, the IC50 in assay [1] is 742 nM; in assay [2], 5780 nM.

As to `CC1(C)CC(N2C[C@H]3C[C@H](Nc4ccc(-c5cccnc5)nn4)C[C@H]3C2)CCO1` (stereo partly drawn) [compound 56, (3aR,5s,6aS)-2-(2,2-dimethyltetrahydro-2H-pyran-4-yl)-N-(6-(pyridin-3-yl)pyridazin-3-yl)octahydrocyclopenta[c]pyrrol-5-amine], the remaining activity at 30 µM in assay [1] (setting [3]) was 4%; in assay [2] (% ACh maximum at 30 μM, rat M4) it was 14%. For the same molecule, the IC50 turned out to be 37.7 nM in assay [1] and 7250 nM in assay [2].

In the case of `Cc1cc(CN2C[C@H]3C[C@H](Nc4ccc(S(=O)(=O)c5ccccc5)nn4)C[C@H]3C2)ccc1F` [compound 31, (3aR,5s,6aS)-2-(4-fluoro-3-methylbenzyl)-N-(6-(phenylsulfonyl)pyridazin-3-yl)octahydrocyclopenta[c]pyrrol-5-amine], the remaining activity at 30 µM in assay [1] (setting [3]) is 4%; in assay [2] (% ACh maximum at 30 μM, rat M4), 3%. The IC50 in assay [1] is 518 nM; in assay [2] it was 1160 nM.

For the molecule `O=S(=O)(c1ccccc1)c1ccc(N[C@H]2C[C@@H]3CN(CC4CCOCC4)C[C@@H]3C2)nn1` [compound 23, (3aR,5s,6aS)-N-(6-(phenylsulfonyl)pyridazin-3-yl)-2-((tetrahydro-2H-pyran-4-yl)methyl)octahydrocyclopenta[c]pyrrol-5-amine], the remaining activity at 30 µM in assay [1] (setting [3]) turned out to be 4%; in assay [2] (% ACh maximum at 30 μM, rat M4) it was 11%. The results for the IC50 in assay [1] and in assay [2] were 65.6 nM and 1520 nM, respectively.

On to `Fc1ccc(Cl)c(-c2ccc(N[C@H]3C[C@@H]4CN(C5CCCOC5)C[C@@H]4C3)nn2)c1` (stereo partly drawn) [compound 13, (3aR,5s,6aS)-N-(6-(2-chloro-5-fluorophenyl)pyridazin-3-yl)-2-(tetrahydro-2H-pyran-3-yl)octahydrocyclopenta[c]pyrrol-5-amine], for which the remaining activity at 30 µM in assay [1] (setting [3]) was found to be 3%; in assay [2] (% ACh maximum at 30 μM, rat M4), 17%. Besides, the IC50 in assay [1] stood at 80.2 nM; in assay [2], 1400 nM.

As to `Fc1ccc(Cl)c(-c2ccc(N[C@H]3C[C@@H]4CN(C5CCSCC5)C[C@@H]4C3)nn2)c1` [compound 15, (3aR,5s,6aS)-N-(6-(2-chloro-5-fluorophenyl)pyridazin-3-yl)-2-(tetrahydro-2H-thiopyran-4-yl)octahydrocyclopenta[c]pyrrol-5-amine], the remaining activity at 30 µM was 7% in assay [1] (setting [3]) and 5% in assay [2] (% ACh maximum at 30 μM, rat M4). Moreover, the IC50 in assay [1] amounted to 10.2 nM; in assay [2], 884 nM.

On to `O=S(=O)(c1ccc(N[C@H]2C[C@@H]3CN(Cc4ccccn4)C[C@@H]3C2)nn1)C1CCCCC1` [compound 33, (3aR,5s,6aS)-N-(6-(cyclohexylsulfonyl)pyridazin-3-yl)-2-(pyridin-2-ylmethyl)octahydrocyclopenta[c]pyrrol-5-amine], for which the remaining activity at 30 µM in assay [1] (setting [3]) amounted to 5%; in assay [2] (% ACh maximum at 30 μM, rat M4), 14%. Also, the IC50 in assay [1] was found to be 105 nM; in assay [2] it was 4460 nM.

Take `O=S(=O)(c1ccccc1)c1ccc(N[C@H]2C[C@@H]3CN(Cc4ccc5c(c4)OC(F)(F)O5)C[C@@H]3C2)nn1` [compound 26, (3aR,5s,6aS)-2-((2,2-difluorobenzo[d][1,3]dioxol-5-yl)methyl)-N-(6-(phenylsulfonyl)pyridazin-3-yl)octahydrocyclopenta[c]pyrrol-5-amine]: the remaining activity at 30 µM in assay [1] (setting [3]) was determined as 3%; in assay [2] (% ACh maximum at 30 μM, rat M4), 14%. In addition, the IC50 in assay [1] is 1000 nM; in assay [2], 3000 nM.

As for `O=S(=O)(c1ccc(N[C@H]2C[C@@H]3CN(Cc4ccc5[nH]ccc5c4)C[C@@H]3C2)nn1)C1CCCCC1` [compound 47, (3aR,5s,6aS)-2-((1H-indol-5-yl)methyl)-N-(6-(cyclohexylsulfonyl)pyridazin-3-yl)octahydrocyclopenta[c]pyrrol-5-amine], the remaining activity at 30 µM in assay [1] (setting [3]) stood at 4%; in assay [2] (% ACh maximum at 30 μM, rat M4), 9%. Also, the values for the IC50 in assay [1] and in assay [2] were 116 nM and 1570 nM, respectively.

Turning to `O=S1(=O)CCC(N2C[C@H]3C[C@H](Nc4ccc(-c5cc(F)ccc5Cl)nn4)C[C@H]3C2)CC1` [compound 79, 4-((3aR,5s,6aS)-5-((6-(2-chloro-5-fluorophenyl)pyridazin-3-yl)amino)hexahydrocyclopenta[c]pyrrol-2(1H)-yl)tetrahydro-2H-thiopyran 1,1-dioxide], the remaining activity at 30 µM turned out to be 8% in assay [1] (setting [3]) and 42% in assay [2] (% ACh maximum at 30 μM, rat M4). Moreover, the IC50 in assay [1] was 1750 nM; in assay [2], > 10000 nM.
